Legend:
[1] = Test 1: antioxidant effect on linoleic acid, peroxides by ferric thiocyanate method; type: biochemical; conditions: 0.2% added to linoleic acid, 60° C.
Procedure: A sample was prepared by adding dl-α tocopherol (manufactured by Wako Jun-yaku Kogyo Company), bovine lactoferrin (manufactured by Sigma Company), hydrolysate of lactoferrin (prepared by the same method as in the Example 2), or peptide (prepared by the same method as in the Example 3) to a final concentration of 0.2% (weight percentage; same applies hereafter except for the degree of decomposition) to commercially available linoleic acid (manufactured by Wako Jun-Yaku Kogyo Company) containing no additive. Hereafter, the thus prepared samples are individually referred to as […].
Antioxidant effect of the individual samples was tested by the method of Mitsuda et al.(Eiyo to Shokuryo, Vol. 19, p. 210, 1966) described below.
The above-mentioned samples were added to a mixed solution containing 10 ml of ethanol, 10 ml of 0.1M phosphate buffer solution (pH: 7.0), and 5 ml of deionized water so as to achieve a final concentration of linoleic acid of […](mol/l). This solution was placed in a vial bottle having a capacity of 50 ml, and the closely plugged bottle was held in an incubator at 60° C. The total volume was always adjusted to 25 ml by reducing the above-mentioned ionized water, depending upon the quantity of added sample. At prescribed time intervals, 0.1 ml was sampled from this vial bottle to measure the quantity of peroxides by the following ferric thiocyanate method.
To the sample solution in an amount of 0.1 ml, 4.7 ml of 75% ethanol, 0.1 ml of 30% ammonium rhodanide, and 0.1 ml of 3.5% hydrochloric acid solution of 2×10^-2 M ferrous chloride were added, and absorbance at 500 nm was measured upon the lapse of just three minutes.

[2] = Test 2: inducing period of linoleic acid oxidation (days until absorbance of 0.2 is exceeded); type: biochemical; conditions: single addition, final concentration 0.1% in linoleic acid
Procedure: The following 11 kinds of sample were prepared.
Sample 2: A sample prepared by adding a hydrolysate of lactoferrin (prepared by the same method as in the Example 2) to linoleic acid to achieve a final concentration of 0.1%;
Sample 3: A sample prepared by adding peptides (prepared by the same method as in the Example 3) to linoleic acid to achieve a final concentration of 0.1%;
Sample 4: A sample prepared by adding vitamin E (dl-α tocopherol the same one as in the Test 1) to linoleic acid to achieve a final concentration of 0.1%;
Sample 5: A sample prepared by adding superoxide dismutase (manufactured by Sigma Company) to linoleic acid to achieve a final concentration of 0.1%;
Sample 6: A sample prepared by adding β-carotene (manufactured by Nakaraitesk Company) to linoleic acid to achieve a final concentration of 0.1%;
Sample 7: A sample prepared by adding vitamin C (manufactured by Nakaraitesk Company) to linoleic acid to achieve a final concentration of 0.1%; […]
Absorbance was measured by the same method as in the Test 1, and with the number of days until an absorbance of 0.2 is exceeded as the inducing period, antioxidant effect was tested.

Compound | Degree of peroxidation (absorbance at 500 nm) ([1]; period of preservation 0 days) | Degree of peroxidation (absorbance at 500 nm) ([1]; period of preservation 3 days) | Degree of peroxidation (absorbance at 500 nm) ([1]; period of preservation 6 days) | Degree of peroxidation (absorbance at 500 nm) ([1]; period of preservation 10 days) | Degree of peroxidation (absorbance at 500 nm) ([1]; period of preservation 13 days) | Inducing period [2]
Cc1c(C)c2c(c(C)c1O)CCC(C)(CCCC(C)CCCC(C)CCCC(C)C)O2 (racemic) [Sample 2, dl-α tocopherol] | 0 | 0.19 | 0.16 | 0.16 | 0.21 | 8 days
O=C1O[C@H]([C@@H](O)CO)C(O)=C1O [Vitamin C, ascorbic acid] | – | – | – | – | – | 8 days
CC1=C(/C=C/C(C)=C/C=C/C(C)=C/C=C/C=C(C)/C=C/C=C(C)/C=C/C2=C(C)CCCC2(C)C)C(C)(C)CCC1 [β-carotene] | – | – | – | – | – | 14 days
Superoxide dismutase | – | – | – | – | – | 10 days
